Measured values published in publication doi:10.1101/2023.11.24.568596v1 (biorxiv, 2023).
Values belong to the compound of their own block, whether it stands above or below them.

Columns and labels:
Conditions in all cases: binder
AurA = target: T1, AurA (Homo sapiens, UniProt O14965)
T1 sequence (O14965 1-403): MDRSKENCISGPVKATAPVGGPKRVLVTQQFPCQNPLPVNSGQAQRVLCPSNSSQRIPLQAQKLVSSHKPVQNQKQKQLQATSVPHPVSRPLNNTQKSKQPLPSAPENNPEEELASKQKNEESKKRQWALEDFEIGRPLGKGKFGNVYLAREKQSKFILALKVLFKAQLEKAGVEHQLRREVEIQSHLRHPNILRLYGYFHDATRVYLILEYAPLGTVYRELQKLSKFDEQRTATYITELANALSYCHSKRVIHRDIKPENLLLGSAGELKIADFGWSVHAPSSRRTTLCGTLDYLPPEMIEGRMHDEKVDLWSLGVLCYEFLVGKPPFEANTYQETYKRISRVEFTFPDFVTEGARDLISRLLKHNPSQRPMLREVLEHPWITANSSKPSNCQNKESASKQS

NEK1 = target: T2, NEK1 (Homo sapiens, UniProt Q96PY6)
T2 sequence (Q96PY6 1-1258): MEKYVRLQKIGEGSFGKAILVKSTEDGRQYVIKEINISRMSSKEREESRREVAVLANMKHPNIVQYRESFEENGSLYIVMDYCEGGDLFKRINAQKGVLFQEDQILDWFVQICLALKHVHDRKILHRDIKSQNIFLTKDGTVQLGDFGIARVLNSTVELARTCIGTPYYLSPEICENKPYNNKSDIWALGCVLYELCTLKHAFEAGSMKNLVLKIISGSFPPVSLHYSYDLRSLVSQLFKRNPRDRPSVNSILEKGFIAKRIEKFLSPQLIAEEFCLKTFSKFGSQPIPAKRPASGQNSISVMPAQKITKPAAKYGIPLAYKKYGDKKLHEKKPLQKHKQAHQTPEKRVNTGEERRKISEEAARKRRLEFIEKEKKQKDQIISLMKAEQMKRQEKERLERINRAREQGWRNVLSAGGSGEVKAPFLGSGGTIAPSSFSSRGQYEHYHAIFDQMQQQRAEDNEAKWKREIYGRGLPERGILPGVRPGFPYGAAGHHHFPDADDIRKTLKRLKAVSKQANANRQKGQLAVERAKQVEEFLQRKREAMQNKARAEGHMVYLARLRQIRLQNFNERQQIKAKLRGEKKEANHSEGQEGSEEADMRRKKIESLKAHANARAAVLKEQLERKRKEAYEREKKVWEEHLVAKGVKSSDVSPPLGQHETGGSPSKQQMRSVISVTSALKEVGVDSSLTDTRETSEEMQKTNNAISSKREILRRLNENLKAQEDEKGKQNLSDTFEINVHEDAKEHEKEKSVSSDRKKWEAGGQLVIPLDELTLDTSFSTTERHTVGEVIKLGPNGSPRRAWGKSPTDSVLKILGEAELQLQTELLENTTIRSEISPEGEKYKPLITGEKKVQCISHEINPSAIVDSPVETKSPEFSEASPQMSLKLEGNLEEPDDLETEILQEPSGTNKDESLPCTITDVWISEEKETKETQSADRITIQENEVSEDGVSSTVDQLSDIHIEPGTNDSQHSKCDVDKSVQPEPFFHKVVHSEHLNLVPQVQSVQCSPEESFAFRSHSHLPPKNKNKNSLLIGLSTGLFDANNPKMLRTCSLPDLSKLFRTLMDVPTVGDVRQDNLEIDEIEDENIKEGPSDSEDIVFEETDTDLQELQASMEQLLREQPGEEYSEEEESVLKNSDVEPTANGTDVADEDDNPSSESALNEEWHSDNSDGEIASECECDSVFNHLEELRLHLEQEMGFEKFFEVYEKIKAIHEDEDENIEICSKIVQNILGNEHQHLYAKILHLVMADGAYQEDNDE

BRD4 = BRD4 (Homo sapiens, UniProt O60885)
TLK1 = target: T3, TLK1 (Homo sapiens, UniProt Q9UKI8)
T3 sequence (Q9UKI8 1-766): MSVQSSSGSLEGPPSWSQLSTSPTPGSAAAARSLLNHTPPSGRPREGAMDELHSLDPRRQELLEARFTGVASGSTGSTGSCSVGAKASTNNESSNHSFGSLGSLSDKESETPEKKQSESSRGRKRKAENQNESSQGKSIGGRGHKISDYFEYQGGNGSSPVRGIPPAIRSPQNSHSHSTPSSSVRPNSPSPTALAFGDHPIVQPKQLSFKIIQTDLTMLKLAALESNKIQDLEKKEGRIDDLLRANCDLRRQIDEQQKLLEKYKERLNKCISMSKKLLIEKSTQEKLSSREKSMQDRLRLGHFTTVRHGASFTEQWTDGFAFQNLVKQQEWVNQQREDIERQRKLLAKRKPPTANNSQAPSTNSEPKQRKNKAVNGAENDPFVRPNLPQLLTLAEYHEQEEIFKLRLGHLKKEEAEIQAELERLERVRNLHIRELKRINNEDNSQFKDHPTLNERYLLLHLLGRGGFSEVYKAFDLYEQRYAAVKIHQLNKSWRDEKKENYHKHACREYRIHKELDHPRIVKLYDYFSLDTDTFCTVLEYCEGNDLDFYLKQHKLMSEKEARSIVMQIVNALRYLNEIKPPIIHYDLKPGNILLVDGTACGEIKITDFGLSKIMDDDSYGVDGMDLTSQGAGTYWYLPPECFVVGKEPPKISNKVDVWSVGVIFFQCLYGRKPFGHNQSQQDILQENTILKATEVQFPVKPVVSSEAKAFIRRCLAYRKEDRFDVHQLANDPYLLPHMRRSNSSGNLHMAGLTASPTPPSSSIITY

dTm 33 (AurA): 2.8 °C
dTm 33 (NEK1): -3.6 °C
dTm 33 (BRD4): -3.7 °C
dTm 33 (TLK1): -0.8 °C
SMILES: Cc1cccc(-c2ccc(-c3cc4cnc(Nc5ccc(F)c(CO)c5)nc4n(CCCCN)c3=O)c(Cl)c2)n1 [compound 33, 8-(4-Aminobutyl)-6-(2-chloro-4-(6-methylpyridin-2-yl)phenyl)-2-((4-fluoro-3-(hydroxymethyl)phenyl)amino)pyrido[2,3-d]pyrimidin-7(8H)-one]

dTm 35 (AurA): 8.6 °C
dTm 35 (NEK1): -0.7 °C
dTm 35 (BRD4): -3.6 °C
dTm 35 (TLK1): -2.5 °C
SMILES: COc1cc(N2CCOCC2)ccc1Nc1ncc2cc(-c3ccc(-c4cccc(C)n4)cc3Cl)c(=O)n(CCCCN)c2n1 [compound 35, 8-(4-Aminobutyl)-6-(2-chloro-4-(6-methylpyridin-2-yl)phenyl)-2-((2-methoxy-4-morpholino-phenyl)amino)pyrido[2,3-d]pyrimidin-7(8H)-one]

dTm 36 (AurA): 5.1 °C
dTm 36 (NEK1): 0.0 °C
dTm 36 (BRD4): -3.5 °C
dTm 36 (TLK1): -1.9 °C
SMILES: COc1cc(N2CCN(C)CC2)ccc1Nc1ncc2cc(-c3ccc(-c4cccc(C)n4)cc3Cl)c(=O)n(CCCCN)c2n1 [compound 36, 8-(4-Aminobutyl)-6-(2-chloro-4-(6-methylpyridin-2-yl)phenyl)-2-((2-methoxy-4-(4-methylpiperazin-1-yl)phenyl)amino)pyrido[2,3-d]pyrimidin-7(8H)-one]

dTm 34 (AurA): 3.4 °C
dTm 34 (NEK1): -1.0 °C
dTm 34 (BRD4): -1.8 °C
dTm 34 (TLK1): -1.1 °C
SMILES: COc1ccc(O)c(Nc2ncc3cc(-c4ccc(-c5cccc(C)n5)cc4Cl)c(=O)n(CCCCN)c3n2)c1 [compound 34, 8-(4-Aminobutyl)-6-(2-chloro-4-(6-methylpyridin-2-yl)phenyl)-2-((2-hydroxy-5-methoxy-phenyl)amino)pyrido[2,3-d]pyrimidin-7(8H)-one]
